Molecular target: Prostaglandin G/H synthase 1 (Homo sapiens, UniProt P23219)
Sequence (P23219 whole entry): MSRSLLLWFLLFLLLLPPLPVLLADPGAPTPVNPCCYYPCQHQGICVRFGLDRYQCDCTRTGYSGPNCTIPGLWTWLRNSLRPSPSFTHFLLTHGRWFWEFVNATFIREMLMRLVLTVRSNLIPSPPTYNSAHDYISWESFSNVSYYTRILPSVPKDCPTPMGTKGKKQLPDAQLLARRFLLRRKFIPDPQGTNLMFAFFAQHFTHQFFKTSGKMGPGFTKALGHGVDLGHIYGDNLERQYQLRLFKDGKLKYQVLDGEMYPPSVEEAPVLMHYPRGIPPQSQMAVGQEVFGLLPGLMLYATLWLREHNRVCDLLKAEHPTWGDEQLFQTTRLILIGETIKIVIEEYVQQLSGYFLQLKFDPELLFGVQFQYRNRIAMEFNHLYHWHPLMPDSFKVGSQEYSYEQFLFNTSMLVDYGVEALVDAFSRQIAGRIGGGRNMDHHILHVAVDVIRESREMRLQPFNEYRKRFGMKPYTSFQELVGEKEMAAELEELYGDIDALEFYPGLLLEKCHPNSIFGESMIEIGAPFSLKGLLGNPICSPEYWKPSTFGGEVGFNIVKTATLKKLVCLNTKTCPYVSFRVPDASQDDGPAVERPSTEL

- Ki: > 10 µM
Compound: Cc1ccc(-c2ncc(Cl)cc2-c2ccc(S(C)(=O)=O)cc2)cn1

From BindingDB's records for doi:10.1016/S0002-8703(03)00398-3 (University of Maryland Hospital, 2003)
